For this test, the system named is P388 leukemia ip, CD2F1 mice, survival T/C. Put plainly: NCI In Vivo Anticancer Drug Screen. Data for tumor model P388 Leukemia (intraperitoneal) in CD2F1 (CDF1) mice. The note with it: endpoint: median survival time, higher = longer survival. A digest of the protocol: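 Mice carrying the transplanted tumor received test compound or vehicle. Survival was recorded in each group, and the value is the treated-group measurement divided by that of the vehicle-treated control group.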

[1] abbreviates: dose: 60.0 mg/kg/injection, schedule: Q01DX005 (ip), vehicle: saline with Tween-80.
Where [2] appears, read: dose: 120.0 mg/kg/injection, schedule: Q01DX005 (ip), vehicle: saline with Tween-80.
Setting [3] is: dose: 240.0 mg/kg/injection, schedule: Q01DX005 (ip), vehicle: saline with Tween-80.
Setting [4] is: dose: 6.25 mg/kg/injection, schedule: Q01DX009 (ip), vehicle: saline.
Setting [5] is: dose: 12.5 mg/kg/injection, schedule: Q01DX009 (ip), vehicle: saline.
[6] abbreviates: dose: 25.0 mg/kg/injection, schedule: Q01DX005 (ip), vehicle: saline with Tween-80.
Setting [7] is: dose: 100.0 mg/kg/injection, schedule: Q01DX005 (ip), vehicle: saline with Tween-80.
The mark [8] stands for this setting: dose: 200.0 mg/kg/injection, schedule: Q01DX005 (ip), vehicle: saline with Tween-80.
The mark [9] stands for this setting: dose: 50.0 mg/kg/injection, schedule: Q01DX005 (ip), vehicle: saline with Tween-80.
The mark [10] stands for this setting: dose: 100.0 mg/kg/injection, schedule: Q01DX009 (ip), vehicle: saline with Tween-80.
[11] abbreviates: dose: 200.0 mg/kg/injection, schedule: Q01DX009 (ip), vehicle: saline with Tween-80.
Where [12] appears, read: dose: 50.0 mg/kg/injection, schedule: Q01DX009 (ip), vehicle: saline with Tween-80.
Where [13] appears, read: dose: 25.0 mg/kg/injection, schedule: Q01DX009 (ip), vehicle: Klucel (hydroxypropylcellulose) (HPC).

“And” between values parts separate entries of the source, which are not always exact repeats. Equal values may be shown once. Inconclusive results and toxic doses are left out.

In the case of `CC(N)CCc1ccccc1` (configuration not stated), the T/C by setting is: (dose: 12.5 mg/kg/injection, schedule: Q01DX009 (ip), vehicle: saline sonified) 100 % of control; (dose: 25.0 mg/kg/injection, schedule: Q01DX009 (ip), vehicle: saline sonified) 100 % of control; (dose: 50.0 mg/kg/injection, schedule: Q01DX009 (ip), vehicle: saline sonified) 100 % of control.
Regarding `CN(C)c1nc(=O)c2c(ccc3ccccc32)o1`, the T/C was 97 % of control under setting [1], 104 % of control under setting [2] and 101 % of control under setting [3].
On to `CNc1c[nH]c(=O)[nH]c1=O`, for which the T/C runs as follows: (dose: 50.0 mg/kg/injection, schedule: Q01DX005 (ip), vehicle: Klucel (hydroxypropylcellulose) (HPC)) 108 % of control; (dose: 100.0 mg/kg/injection, schedule: Q01DX005 (ip), vehicle: Klucel (hydroxypropylcellulose) (HPC)) 105 % of control; (dose: 200.0 mg/kg/injection, schedule: Q01DX005 (ip), vehicle: Klucel (hydroxypropylcellulose) (HPC)) 96 % of control.
On to `CCC/C(=N\O)S(=O)(=O)c1ccc(NN=O)nc1`, for which the T/C is 107 % of control (dose: 3.12 mg/kg/injection, schedule: Q01DX009 (ip), vehicle: saline); 108 % of control and 110 % of control under setting [4]; 116 % of control and 118 % of control under setting [5]; 150 % of control (dose: 25.0 mg/kg/injection, schedule: Q01DX009 (ip), vehicle: saline).
As for `Cn1nnc2c(C(N)=O)ncn2c1=O`, the T/C by setting is: under setting [6], 118 % of control; (dose: 25.0 mg/kg/injection, schedule: Q01DX005 (ip), vehicle: saline) 119 % of control and 121 % of control; under setting [7], 189 % of control; (dose: 100.0 mg/kg/injection, schedule: Q01DX005 (ip), vehicle: saline) 164 % of control and 217 % of control; under setting [8], 254 % of control; (dose: 200.0 mg/kg/injection, schedule: Q01DX005 (ip), vehicle: saline) 225 % of control and 87 % of control.
With `CCOC(=O)COc1cc2c(cc1Cc1ccc(OC)cc1)OCO2`, the T/C reads like this: under setting [9], 97 % of control; under setting [7], 92 % of control.
On to `O=c1c2c([nH]c3c1c1[nH]c4c(c(=O)c1c1[nH]c5c(c(=O)c31)CCCC5)CCCC4)CCCC2`, for which the T/C is 104 % of control (dose: 25.0 mg/kg/injection, schedule: Q04DX003 (ip), vehicle: saline with Tween-80); 95 % of control (dose: 50.0 mg/kg/injection, schedule: Q04DX003 (ip), vehicle: saline with Tween-80); 87 % of control and 95 % of control (dose: 100.0 mg/kg/injection, schedule: Q04DX003 (ip), vehicle: saline with Tween-80).
As to `Nc1ccccc1SC1CC(=O)N(c2ccc(Cl)cc2)C1=O` (configuration not stated), the T/C under setting [10] was 105 % of control; the T/C under setting [11] was 110 % of control; the T/C (dose: 400.0 mg/kg/injection, schedule: Q01DX009 (ip), vehicle: saline with Tween-80) is 100 % of control.
With `CC(C)C[NH-].CC(C)C[NH-].O.O.[Cl][Pt+2][Cl]`, the T/C is 167 % of control (dose: 11.0 mg/kg/injection, schedule: Q01DX009 (ip), vehicle: saline with Tween-80); 181 % of control (dose: 12.5 mg/kg/injection, schedule: Q01DX009 (ip), vehicle: other); 180 % of control (dose: 16.5 mg/kg/injection, schedule: Q01DX009 (ip), vehicle: saline with Tween-80); 200 % of control (dose: 25.0 mg/kg/injection, schedule: Q01DX009 (ip), vehicle: other); 218 % of control (dose: 25.0 mg/kg/injection, schedule: Q01DX009 (ip), vehicle: saline with Tween-80).
For `O=C(NC(=O)Nc1ccc(Cl)cc1)NC(=O)c1ccccc1F`, the T/C is 114 % of control under setting [12], 101 % of control under setting [10] and 95 % of control under setting [11].
Consider `COc1ccc(C(=O)CCc2c[nH]c3ccccc23)c(O)c1`, for which the T/C is 101 % of control under setting [1], 112 % of control under setting [2] and 92 % of control under setting [3].
Turning to `Clc1ccc2nc3ccccc3c(SCCCCCCSc3c4ccccc4nc4ccc(Cl)cc34)c2c1`, the T/C runs as follows: (dose: 7.5 mg/kg/injection, schedule: Q01DX005 (ip), vehicle: Klucel (hydroxypropylcellulose) (HPC)) 103 % of control; (dose: 15.0 mg/kg/injection, schedule: Q01DX005 (ip), vehicle: Klucel (hydroxypropylcellulose) (HPC)) 97 % of control; (dose: 240.0 mg/kg/injection, schedule: Q01DX005 (ip), vehicle: Klucel (hydroxypropylcellulose) (HPC)) 89 % of control.
Take `C[As](C)SC1CC(OC(=O)c2ccccc2)C(OC(=O)c2ccccc2)C(COC(=O)c2ccccc2)O1` (configuration not stated): the T/C is 100 % of control under setting [12], 106 % of control under setting [10] and 105 % of control under setting [11].
As for `O=C(Nc1ncnc2nc[nH]c12)NC1CCCCC1`, the T/C runs as follows: (dose: 0.75 mg/kg/injection, schedule: Q01DX005 (ip), vehicle: saline) 106 % of control; (dose: 1.5 mg/kg/injection, schedule: Q01DX005 (ip), vehicle: saline) 98 % of control; (dose: 3.0 mg/kg/injection, schedule: Q01DX005 (ip), vehicle: saline) 95 % of control; (dose: 6.25 mg/kg/injection, schedule: Q01DX005 (ip), vehicle: saline with Tween-80) 89 % of control; (dose: 12.5 mg/kg/injection, schedule: Q01DX005 (ip), vehicle: saline with Tween-80) 98 % of control; under setting [6], 86 % of control. The T/C under setting [9] was 109 % of control.
As for `N#CCCCCC/C=C/CCCCCCC1C=CCC1` (configuration not stated), the T/C reads like this: (dose: 100.0 mg/kg/injection, schedule: Q01DX001 (ip), vehicle: saline) 100 % of control; (dose: 200.0 mg/kg/injection, schedule: Q01DX001 (ip), vehicle: saline) 100 % of control; (dose: 400.0 mg/kg/injection, schedule: Q01DX001 (ip), vehicle: saline) 96 % of control.
As to `COc1cc(C(c2cc3c(cc2O)OCO3)N2CCN(C(c3cc(OC)c(O)c(OC)c3)c3cc4c(cc3O)OCO4)CC2)cc(OC)c1O` (configuration not stated), the T/C runs as follows: under setting [1], 91 % of control; under setting [2], 89 % of control; under setting [3], 91 % of control.
As to `COc1ccccc1/C=C/C(=O)c1ccccc1`, the T/C was 96 % of control under setting [12], 94 % of control under setting [10] and 96 % of control under setting [11].
`CCOC(=O)c1ccc(N(CCC2CO2)S(=O)(=O)c2ccc(C)cc2)cc1` (configuration not stated): the T/C runs as follows: under setting [13], 94 % of control; (dose: 50.0 mg/kg/injection, schedule: Q01DX009 (ip), vehicle: Klucel (hydroxypropylcellulose) (HPC)) 93 % of control; (dose: 100.0 mg/kg/injection, schedule: Q01DX009 (ip), vehicle: Klucel (hydroxypropylcellulose) (HPC)) 98 % of control; (dose: 200.0 mg/kg/injection, schedule: Q01DX009 (ip), vehicle: Klucel (hydroxypropylcellulose) (HPC)) 94 % of control.
Regarding `N#CCCN(CCC#N)Cc1c(O)c(O)c(CN(CCC#N)CCC#N)c2ccccc12`, the T/C under setting [9] is 102 % of control and 105 % of control; the T/C under setting [7] was 115 % of control and 118 % of control; the T/C under setting [8] is 122 % of control and 124 % of control.
Consider `CC1=C2C(=CO[C@H](C)[C@H]2C)C(=O)C(C(=O)O)=C1O`, for which the T/C was 112 % of control (dose: 6.25 mg/kg/injection, schedule: Q01DX009 (ip), vehicle: Klucel (hydroxypropylcellulose) (HPC)); 117 % of control under setting [4]; 120 % of control (dose: 12.5 mg/kg/injection, schedule: Q01DX009 (ip), vehicle: Klucel (hydroxypropylcellulose) (HPC)); 115 % of control under setting [5]; 124 % of control under setting [13].
For the compound `CCOC(=O)C(NC(=O)OCc1ccccc1)C(O)C#C[Si](C)(C)C` (configuration not stated), the T/C reads like this: (dose: 100.0 mg/kg/injection, schedule: Q04DX002 (ip), vehicle: saline with Tween-80) 95 % of control; (dose: 200.0 mg/kg/injection, schedule: Q04DX002 (ip), vehicle: saline with Tween-80) 95 % of control; (dose: 400.0 mg/kg/injection, schedule: Q04DX002 (ip), vehicle: saline with Tween-80) 90 % of control.
For `COc1ccc(S(=O)(=O)/C(=C/c2ccccc2[N+](=O)[O-])C(=O)c2ccccc2)cc1`, the T/C reads like this: under setting [9], 111 % of control; under setting [7], 103 % of control; under setting [8], 104 % of control.
With `C=CC1=NC(C)(C)CC(C)O1` (configuration not stated), the T/C is, setting by setting: (dose: 1.56 mg/kg/injection, schedule: Q01DX009 (ip), vehicle: water) 104 % of control; (dose: 3.13 mg/kg/injection, schedule: Q01DX009 (ip), vehicle: water) 107 % of control; (dose: 6.25 mg/kg/injection, schedule: Q01DX009 (ip), vehicle: water) 116 % of control; (dose: 12.5 mg/kg/injection, schedule: Q01DX009 (ip), vehicle: water) 109 % of control.
